Here are results for 57 molecules from patent publication US12221453B2, “Substituted pyrazolo[5′,1′:2,3]pyrimido[5,4-b][1,4]oxazines as TYK2 inhibitors” (TAKEDA PHARMACEUTICAL COMPANY LIMITED, priority 2018, dated 2025).

Structures are written as SMILES.

The test system of this assay is IL-12 induced STAT4 phosphorylation mediated by TYK2/JAK2. The assay is described as follows: IL-12 induced pSTAT4 in human PBMC. The note with it: 1 hr compound, 1.7 ng/mL IL-12 for 30 minutes. In kind it is cell-based. As for the experimental part:
Human PBMC were isolated from buffy coat and are stored frozen for assays as needed. […] 15 μL of compound or DMSO was added to the well at the desired concentrations and incubated at 1 hr at 37° C. 15 μL of stimulus (final concentration of 1.7 ng/mL IL-12) was added for 30 minutes prior to pSTAT4 and total STAT4 analysis using cell lysates prepared and analyzed by MSD reagents as per manufacturer protocol. The final DMSO concentration of compound in the assay was 0.1%. The IL-12 induced pSTAT4 assay evaluates the inhibition of IL-12 induced STAT4 phosphorlyation mediated by TYK2/JAK2 ([…] complex).

Broadly, the IC50 is the midpoint of a concentration-inhibition curve. For the molecule `CNc1cc(Nc2cccn(C(C)C)c2=O)nc2c(C(=O)NC3CC[C@@H]3F)cnn12` (mixture of isomers) [Compound I-145], the 50% inhibitory concentration (IC50) is under 0.1 µM. As to `CNc1cc(Nc2cccn([C@H]3C[C@@H](OC)C3)c2=O)nc2c(C(=O)NC3CC[C@@H]3F)cnn12` (mixture of isomers) [Compound I-173], the IC50 is under 0.1 µM.

With `CNc1cc(Nc2cccn([C@H]3C[C@H](OC)C3)c2=O)nc2c(C(=O)NC3CC[C@@H]3F)cnn12` (mixture of isomers) [Compound I-176], the IC50 is under 0.1 µM.

Molecule `CNc1cc(Nc2cccn(C3[C@H]4COC[C@@H]34)c2=O)nc2c(C(=O)NC3C[C@H]3OC)cnn12` (mixture of isomers) [I-24, 5-((1-((1R,5S,6r)-3-Oxabicyclo[3.1.0]hexan-6-yl)-2-oxo-1,2-dihydropyridin-3-yl)amino)-N-(2-methoxycyclopropyl)-7-(methylamino)pyrazolo[1,5-a]pyrimidine-3-carboxamide] came in with a half-inhibitory concentration (IC50) of under 0.1 µM. In turn, `CNc1cc(Nc2cccn([C@@H]3CCC[C@](C)(OC)C3)c2=O)nc2c(C(=O)NC3CC3)cnn12` [Compound I-124] displayed an IC50 of under 0.1 µM. The molecule `CNc1cc(Nc2cccn(C3COC3)c2=O)nc2c(C(=O)N[C@@H]3C[C@@H]3F)cnn12` [Compound I-125] showed an IC50 of under 0.1 µM.

`CNc1cc(Nc2cccn([C@H]3CCC[C@@](C)(O)C3)c2=O)nc2c(C(=O)N[C@@H]3C[C@@H]3F)cnn12` [Compound I-129] showed a 50% inhibitory concentration (IC50) of under 0.1 µM.

The molecule `CNc1cc(Nc2cccn(C3CCC[C@@](C)(OC)C3)c2=O)nc2c(C(=O)N[C@@H]3C[C@@H]3F)cnn12` (stereo partly drawn) [Compound I-130] had an IC50 of under 0.1 µM. `CNc1cc(Nc2cccn([C@@H]3CCC[C@](C)(OC)C3)c2=O)nc2c(C(=O)N[C@@H]3C[C@@H]3F)cnn12` [Compound I-131] registered an IC50 of under 0.1 µM.

Molecule `CNc1cc(Nc2cccn([C@H]3C[C@@H]3F)c2=O)nc2c(C(=O)N[C@@H]3C[C@H]3OC)cnn12` [Compound I-133] registered a half-inhibitory concentration (IC50) of under 0.1 µM. `CNc1cc(Nc2cccn([C@@H]3C[C@H]3F)c2=O)nc2c(C(=O)N[C@@H]3C[C@H]3OC)cnn12` [Compound I-135]: the half-maximal inhibitory concentration (IC50) is under 0.1 µM. With `CNc1cc(Nc2cccn([C@H]3C[C@H](F)C3)c2=O)nc2c(C(=O)N[C@H]3C[C@@H]3OC)cnn12` [Compound I-138] the figure was under 0.1 µM; with `CNc1cc(Nc2cccn(C3CC(F)(F)C3)c2=O)nc2c(C(=O)N[C@@H]3C[C@H]3OC)cnn12` [Compound I-139], under 0.1 µM; with `CNc1cc(Nc2cccn([C@H]3C[C@H](OC)C3)c2=O)nc2c(C(=O)NC3CCC3)cnn12` [Compound I-141], under 0.1 µM.

Turning to `CNc1cc(Nc2cccn([C@H]3[C@@H]4COC[C@@H]43)c2=O)nc2c(C(=O)NC3CCC3)cnn12` [Compound I-142], the half-maximal inhibitory concentration (IC50) was under 0.1 µM. Consider `CNc1cc(Nc2cccn(C3CCOCC3)c2=O)nc2c(C(=O)NC3CCC3)cnn12` [Compound I-143], for which the IC50 was under 0.1 µM.

Consider `CNc1cc(Nc2cccn(-c3ocnc3C)c2=O)nc2c(C(=O)NC3CCC3)cnn12` [Compound I-144], for which the 50% inhibitory concentration (IC50) is under 0.1 µM.

Turning to `CNc1cc(Nc2cccn(C(C)C)c2=O)nc2c(C(=O)N[C@@H]3CC[C@H]3F)cnn12` [Compound I-147], the 50% inhibitory concentration (IC50) was under 0.1 µM.

Molecule `CNc1cc(Nc2cccn([C@H]3C[C@@H]3F)c2=O)nc2c(C(=O)N[C@H]3CC[C@@H]3F)cnn12` [Compound I-149] registered an IC50 of under 0.1 µM. In the case of `CNc1cc(Nc2cccn([C@@H]3C[C@H]3F)c2=O)nc2c(C(=O)NC3CC[C@@H]3F)cnn12` (stereo partly drawn) [Compound I-151], the IC50 was under 0.1 µM. Molecule `CNc1cc(Nc2cccn([C@@H]3C[C@H]3OC)c2=O)nc2c(C(=O)N[C@H]3CC[C@@H]3F)cnn12` [Compound I-155] came in with an IC50 of under 0.1 µM. For `CNc1cc(Nc2cccn([C@H]3C[C@@H]3OC)c2=O)nc2c(C(=O)N[C@H]3CC[C@@H]3F)cnn12` [Compound I-158], the 50% inhibitory concentration (IC50) was under 0.1 µM. Molecule `CNc1cc(Nc2cccn(C3COC3)c2=O)nc2c(C(=O)NC3CC[C@H]3F)cnn12` (stereo partly drawn) [Compound I-160] returned an IC50 of under 0.1 µM. `CNc1cc(Nc2cccn(C3COC3)c2=O)nc2c(C(=O)N[C@@H]3CC[C@@H]3F)cnn12` [Compound I-162]: the IC50 is under 0.1 µM. `CNc1cc(Nc2cccn(C3COC3)c2=O)nc2c(C(=O)NC3CC[C@@H]3F)cnn12` (stereo partly drawn) [Compound I-163] showed a half-maximal inhibitory concentration (IC50) of under 0.1 µM.

For the molecule `CNc1cc(Nc2cccn([C@H]3C[C@H](F)C3)c2=O)nc2c(C(=O)NC3CC[C@@H]3F)cnn12` (stereo partly drawn) [Compound I-164], the IC50 is under 0.1 µM.

Molecule `CNc1cc(Nc2cccn([C@H]3C[C@H](F)C3)c2=O)nc2c(C(=O)N[C@H]3CC[C@@H]3F)cnn12` [Compound I-165] came in with an IC50 of under 0.1 µM. In the case of `CNc1cc(Nc2cccn([C@H]3CC[C@H]3O)c2=O)nc2c(C(=O)NC3CC[C@@H]3F)cnn12` (stereo partly drawn) [Compound I-167], the IC50 was under 0.1 µM. `CNc1cc(Nc2cccn([C@H]3CC[C@H]3O)c2=O)nc2c(C(=O)N[C@@H]3CC[C@H]3F)cnn12` [Compound I-169] displayed a half-inhibitory concentration (IC50) of under 0.1 µM. With `CNc1cc(Nc2cccn([C@H]3C[C@@H](OC)C3)c2=O)nc2c(C(=O)N[C@H]3CC[C@@H]3F)cnn12` [Compound I-174], the IC50 was under 0.1 µM. `CNc1cc(Nc2cccn([C@H]3C[C@H](OC)C3)c2=O)nc2c(C(=O)N[C@@H]3CC[C@H]3F)cnn12` [Compound I-178] came in with a 50% inhibitory concentration (IC50) of under 0.1 µM.

Regarding `CNc1cc(Nc2cccn([C@@H]3CCC[C@@H]3O)c2=O)nc2c(C(=O)NC3CC[C@@H]3F)cnn12` (stereo partly drawn) [Compound I-179], the IC50 is under 0.1 µM.

Consider `CNc1cc(Nc2cccn([C@@H]3CCC[C@@H]3O)c2=O)nc2c(C(=O)N[C@@H]3CC[C@H]3F)cnn12` [Compound I-181], for which the half-maximal inhibitory concentration (IC50) is under 0.1 µM. The value for `CNc1cc(Nc2cccn(-c3ocnc3C)c2=O)nc2c(C(=O)NC3CC[C@@H]3F)cnn12` (stereo partly drawn) [Compound I-185] was under 0.1 µM; that for `CNc1cc(Nc2cccn(-c3ocnc3C)c2=O)nc2c(C(=O)N[C@H]3CC[C@@H]3F)cnn12` [Compound I-186] was under 0.1 µM; that for `CNc1cc(Nc2cccn(C3CCOCC3)c2=O)nc2c(C(=O)NC3CC[C@@H]3F)cnn12` (stereo partly drawn) [Compound I-188] was under 0.1 µM. In turn, `CNc1cc(Nc2cccn(C3CCOCC3)c2=O)nc2c(C(=O)N[C@@H]3CC[C@H]3F)cnn12` [Compound I-190] had a concentration for half-maximal inhibition (IC50) of under 0.1 µM. Turning to `CNc1cc(Nc2cccn(C3CCOCC3)c2=O)nc2c(C(=O)NC3CC[C@H]3F)cnn12` (stereo partly drawn) [Compound I-191], the half-maximal inhibitory concentration (IC50) is under 0.1 µM. With `CNc1cc(Nc2cccn(C3CCOCC3)c2=O)nc2c(C(=O)N[C@H]3CC[C@H]3F)cnn12` [Compound I-192] the figure was under 0.1 µM. Molecule `CNc1cc(Nc2cccn(C3CCOCC3)c2=O)nc2c(C(=O)N[C@@H]3CC[C@@H]3F)cnn12` [Compound I-193] returned a half-maximal inhibitory concentration (IC50) of under 0.1 µM. For the molecule `CNc1cc(Nc2cccn([C@@H]3CCCOC3)c2=O)nc2c(C(=O)NC3CC[C@@H]3F)cnn12` (stereo partly drawn) [Compound I-194], the IC50 is under 0.1 µM. Molecule `CNc1cc(Nc2cccn([C@@H]3CCCOC3)c2=O)nc2c(C(=O)N[C@@H]3CC[C@H]3F)cnn12` [Compound I-196] showed an IC50 of under 0.1 µM. `CNc1cc(Nc2cccn([C@H]3CCCOC3)c2=O)nc2c(C(=O)NC3CC[C@@H]3F)cnn12` (stereo partly drawn) [Compound I-197] displayed an IC50 of under 0.1 µM. For `CNc1cc(Nc2cccn([C@H]3CCCOC3)c2=O)nc2c(C(=O)N[C@H]3CC[C@@H]3F)cnn12` [Compound I-198], the IC50 is under 0.1 µM. The value for `CNc1cc(Nc2cccn(-c3ccccn3)c2=O)nc2c(C(=O)NC3CC[C@@H]3F)cnn12` (stereo partly drawn) [Compound I-200] was under 0.1 µM; that for `CNc1cc(Nc2cccn(-c3ccccn3)c2=O)nc2c(C(=O)N[C@H]3CC[C@@H]3F)cnn12` [Compound I-201] was under 0.1 µM; that for `CNc1cc(Nc2cccn([C@H]3[C@@H]4COC[C@@H]43)c2=O)nc2c(C(=O)NC3CC[C@H]3F)cnn12` (stereo partly drawn) [Compound I-203] was under 0.1 µM. The value for `CNc1cc(Nc2cccn([C@H]3[C@@H]4COC[C@@H]43)c2=O)nc2c(C(=O)N[C@H]3CC[C@H]3F)cnn12` [Compound I-204] was under 0.1 µM; that for `CNc1cc(Nc2cccn([C@H]3[C@@H]4COC[C@@H]43)c2=O)nc2c(C(=O)N[C@@H]3CC[C@@H]3F)cnn12` [Compound I-205] was under 0.1 µM; that for `CNc1cc(Nc2cccn([C@H]3[C@@H]4COC[C@@H]43)c2=O)nc2c(C(=O)NC3CC[C@@H]3F)cnn12` (stereo partly drawn) [Compound I-206] was under 0.1 µM.

Molecule `CNc1cc(Nc2cccn([C@H]3[C@@H]4COC[C@@H]43)c2=O)nc2c(C(=O)N[C@@H]3CC[C@H]3F)cnn12` [Compound I-208] registered an IC50 of under 0.1 µM.

`CNc1cc(Nc2cccn([C@@H]3CCCC[C@@H]3O)c2=O)nc2c(C(=O)NC3CC[C@@H]3F)cnn12` (stereo partly drawn) [Compound I-209] showed a concentration for half-maximal inhibition (IC50) of under 0.1 µM. The molecule `CNc1cc(Nc2cccn([C@@H]3CCCC[C@@H]3O)c2=O)nc2c(C(=O)N[C@@H]3CC[C@H]3F)cnn12` [Compound I-211] had an IC50 of under 0.1 µM. The molecule `CNc1cc(Nc2cccn([C@H]3CCCC[C@H]3O)c2=O)nc2c(C(=O)N[C@@H]3CC[C@H]3F)cnn12` [Compound I-214] gave a 50% inhibitory concentration (IC50) of under 0.1 µM. Turning to `CNc1cc(Nc2cccn([C@@H]3CCOC[C@@H]3OC)c2=O)nc2c(C(=O)N[C@@H]3CC[C@H]3F)cnn12` [Compound I-217], the IC50 is under 0.1 µM.

In turn, `CNc1cc(Nc2cccn([C@H]3CC[C@H](OC)CC3)c2=O)nc2c(C(=O)NC3CC[C@@H]3F)cnn12` (stereo partly drawn) [Compound I-224] displayed an IC50 of under 0.1 µM. `CNc1cc(Nc2cccn([C@H]3CC[C@H](OC)CC3)c2=O)nc2c(C(=O)N[C@H]3CC[C@@H]3F)cnn12` [Compound I-225] had an IC50 of under 0.1 µM.
